# According to patent US20240174727A1, “LONG-ACTING NATRIURETIC PEPTIDES AND USES THEREOF” (Eli Lilly and Company, priority 2022, published 2024):
# How the values were obtained:
# plasma cGMP = assay: In vivo monkey studies, plasma cGMP ELISA; set-up: species or system male cynomolgus monkeys
# Outline: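 First, monkeys (male cynomolgus) are dosed subcutaneously once and bled before dosing and at fixed times. Then plasma is diluted 1:20 and acetylated. Next it is incubated 2 h at room temperature with conjugate and antibody, developed with pNpp and read at 405 nm. Finally, predose cGMP is subtracted per animal.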
# [1] = Pharmacokinetics in male Sprague Dawley rats; type: in vivo; settings: rat, sc, mean, single subcutaneous administration of 200 nMol/kg, plasma
# Outline: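 Male Sprague Dawley rats received a single subcutaneous dose of […], with blood sampled over 120 hours. Intact peptide in K3 EDTA plasma was measured by qualified high-resolution LC/MS after methanol/0.1% formic acid extraction with an analog internal standard; PK parameters from individual plasma concentrations.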
smiles,measurement,setting,value
CC[C@H](C)[C@@H]1NC(=O)[C@H](CCCNC(=N)N)NC(=O)[C@H](CC(=O)O)NC(=O)[C@H]([C@@H](C)CC)NC(=O)[C@H](CCCNC(=N)N)NC(=O)CNC(=O)CNC(=O)[C@H](Cc2ccccc2)NC(=O)[C@@H](NC(=O)[C@H](CO)NC(=O)[C@H](CO)NC(=O)[C@H](CCCNC(=N)N)NC(=O)CCNC(=O)[C@H](CCCCN)NC(=O)[C@H](CCC(=O)O)NC(=O)CNC(=O)[C@H](CCCCN)NC(=O)[C@H](CCC(=O)O)NC(=O)[C@H](CCCCN)NC(=O)[C@H](CCC(=O)O)NC(=O)[C@H](CCCCN)NC(=O)[C@H](CCC(=O)O)NC(=O)CC[C@H](NC(=O)CCCCCCCCCCCCCCCCCCC(=O)O)C(=O)O)CSCSC[C@@H](C(=O)N2CCC[C@H]2C(=O)N[C@@H](CO)C(=O)N[C@@H](Cc2ccccc2)C(=O)N[C@@H](CCCNC(=N)N)C(=O)N[C@@H](Cc2c[nH]cn2)C(=O)NCC(=O)NCC(=O)N2CCC[C@H]2C(=O)N[C@@H](CO)C(=O)N[C@@H](CO)C(=O)NCC(=O)N[C@@H](C)C(=O)N2CCC[C@H]2C(=O)N2CCC[C@H]2C(=O)N2CCC[C@H]2C(=O)N[C@@H](CO)C(N)=O)NC(=O)CNC(=O)[C@H](CC(C)C)NC(=O)CNC(=O)[C@H](CO)NC(=O)[C@H](Cc2ccc(O)cc2)NC(=O)[C@H](Cc2c[nH]cn2)NC(=O)CNC1=O [Example 56],Net cGMP (nM) Change from Baseline 0.083 h,"plasma cGMP; dose 100 nmol/kg, 0.083 h postdose, monkey plasma",-2.8 nM
same,Net cGMP (nM) Change from Baseline 0.25 h,"plasma cGMP; dose 100 nmol/kg, 0.25 h postdose, monkey plasma",-0.66 nM
same,Net cGMP (nM) Change from Baseline 0.5 h,"plasma cGMP; dose 100 nmol/kg, 0.5 h postdose, monkey plasma",-0.65 nM
same,Net cGMP (nM) Change from Baseline 1 h,"plasma cGMP; dose 100 nmol/kg, 1 h postdose, monkey plasma",-0.51 nM
same,Net cGMP (nM) Change from Baseline 2 h,"plasma cGMP; dose 100 nmol/kg, 2 h postdose, monkey plasma",-1.82 nM
same,Net cGMP (nM) Change from Baseline 4 h,"plasma cGMP; dose 100 nmol/kg, 4 h postdose, monkey plasma",1.83 nM
same,Net cGMP (nM) Change from Baseline 8 h,"plasma cGMP; dose 100 nmol/kg, 8 h postdose, monkey plasma",10.57 nM
same,Net cGMP (nM) Change from Baseline 12 h,"plasma cGMP; dose 100 nmol/kg, 12 h postdose, monkey plasma",12.11 nM
same,Net cGMP (nM) Change from Baseline 24 h,"plasma cGMP; dose 100 nmol/kg, 24 h postdose, monkey plasma",17.03 nM
same,Net cGMP (nM) Change from Baseline 36 h,"plasma cGMP; dose 100 nmol/kg, 36 h postdose, monkey plasma",16.59 nM
same,Net cGMP (nM) Change from Baseline 48 h,"plasma cGMP; dose 100 nmol/kg, 48 h postdose, monkey plasma",11.66 nM
same,Net cGMP (nM) Change from Baseline 72 h,"plasma cGMP; dose 100 nmol/kg, 72 h postdose, monkey plasma",11.45 nM
same,Net cGMP (nM) Change from Baseline 96 h,"plasma cGMP; dose 100 nmol/kg, 96 h postdose, monkey plasma",9.32 nM
same,Net cGMP (nM) Change from Baseline 120 h,"plasma cGMP; dose 100 nmol/kg, 120 h postdose, monkey plasma",9.31 nM
same,Net cGMP (nM) Change from Baseline 144 h,"plasma cGMP; dose 100 nmol/kg, 144 h postdose, monkey plasma",7.36 nM
same,Net cGMP (nM) Change from Baseline 168 h,"plasma cGMP; dose 100 nmol/kg, 168 h postdose, monkey plasma",1.99 nM
same,net cGMP levels (result in words),"plasma cGMP; monkeys, single SC dose, plasma",increased net cGMP levels
same,CL/F,[1],0.187 mL/min/kg
same,half-life,[1]; read-out: t½ (converted),2160 min
